pEC50: −log10 of the molar value.
Assays:
[1] = molecular target: T1, human enzyme NAMPT (full length) (Homo sapiens, UniProt P43490); assay: NMN fluorescence biochemical assay (stimulation of NMN synthesis by NAMPT); settings: for pEC50: NMN fluorescence assay, purified human NAMPT 100 nM, concentration giving half-maximal activation, read-out: Enzymatic EC50; for Enzymatic Emax: fold change of maximal activation compared to DMSO
T1 construct: human enzyme NAMPT (full length)
Method in brief: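 Full-length human NAMPT (100 nM) was preincubated 15 min at 37 °C with compound in 50 mM Tris-HCl pH 7.5, 10 mM MgCl2, 2 mM DTT, then reacted 1 h at 37 °C with 50 μM NAM, 100 μM PRPP, 4 mM ATP (stated solution concentrations). NMN was derivatised with acetophenone/KOH then formic acid and read at Ex/Em 382/445 nm; EC50 and Emax (fold over DMSO) reported.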

[2] = test system: endogenous NAMPT in U2OS cells; assay: Cellular NAD+ modulation assay (NAD/NADH-Glo, U2OS cells); assay type: cell-based; settings: Homo sapiens, 24 hours incubation, cellular NAD+; for maximal fold induction: read-out: Cellular Emax
Method in brief: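 Endogenous NAMPT stimulation in U2OS cells treated with compound dilution series for 24 h at 37 °C. Cells lysed with DTAB base, acid-treated 15 min at 60 °C, neutralized, NAD+ read by NAD/NADH-Glo luminescence after 40 min at room temperature. EC50 and Emax (fold over DMSO) derived.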

T1 sequence (P43490 whole entry): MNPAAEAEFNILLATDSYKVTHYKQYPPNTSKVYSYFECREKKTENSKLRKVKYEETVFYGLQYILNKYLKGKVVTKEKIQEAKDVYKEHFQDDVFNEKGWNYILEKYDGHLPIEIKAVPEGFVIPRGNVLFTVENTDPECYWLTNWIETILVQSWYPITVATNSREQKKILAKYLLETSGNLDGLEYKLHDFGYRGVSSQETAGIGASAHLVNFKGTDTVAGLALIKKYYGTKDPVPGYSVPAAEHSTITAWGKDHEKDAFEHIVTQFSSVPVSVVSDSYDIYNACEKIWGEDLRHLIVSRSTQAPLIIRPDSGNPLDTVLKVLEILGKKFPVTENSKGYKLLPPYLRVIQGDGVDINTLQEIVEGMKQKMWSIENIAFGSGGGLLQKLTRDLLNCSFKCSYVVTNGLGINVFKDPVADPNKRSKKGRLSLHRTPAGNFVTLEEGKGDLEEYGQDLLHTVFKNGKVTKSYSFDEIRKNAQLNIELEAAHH

SMILES	pEC50 [1]	Enzymatic Emax [1]	pEC50 [2]	maximal fold induction [2]
O=C1NCC2(CC(CN3C(=O)c4ccccc4C3Cc3c(Cl)nc4sccn34)C2)O1 (centres unmarked) [Compound 469, 2-((1-((6-chloroimidazo[2,1-b]thiazol-5-yl)methyl)-3-oxoisoindolin-2-yl)methyl)-5-oxa-7-azaspiro[3.4]octan-6-one]	5.30 to 6.30	B (3≥B>2)	> 6.30	> 1.5
Cc1cccc2c1C(Cc1c(Cl)cnn1C)N(CC1CC3(CNC(=O)O3)C1)C2=O (centres unmarked) [Compound 470, 2-((3-((4-chloro-1-methyl-1H-pyrazol-5-yl)methyl)-4-methyl-1-oxoisoindolin-2-yl)methyl)-5-oxa-7-azaspiro[3.4]octan-6-one]	≤ 5.30	B (3≥B>2)	5.30 to 6.30	> 1.5
O=C1NCC2(CC(CN3C(=O)c4ccccc4C3Cc3nnn(C4CC4)c3Cl)C2)O1 (centres unmarked) [Compound 471, 2-((1-((5-chloro-1-cyclopropyl-1H-1,2,3-triazol-4-yl)methyl)-3-oxoisoindolin-2-yl)methyl)-5-oxa-7-azaspiro[3.4]octan-6-one]	5.30 to 6.30	B (3≥B>2)	> 6.30	> 1.5
Cn1ncc(Cl)c1CC1c2cc(C3COC3)ccc2C(=O)N1CC1CC2(CNC(=O)O2)C1 (centres unmarked) [Compound 473, 2-((3-((4-chloro-1-methyl-1H-pyrazol-5-yl)methyl)-5-(oxetan-3-yl)-1-oxoisoindolin-2-yl)methyl)-5-oxa-7-azaspiro[3.4]octan-6-one]	5.30 to 6.30	B (3≥B>2)	5.30 to 6.30	> 1.5
Cn1ncc(Cl)c1CC1c2cc(Cl)ccc2C(=O)N1CC1CC2(CNC(=O)O2)C1 (centres unmarked) [Compound 474, 2-((5-chloro-3-((4-chloro-1-methyl-1H-pyrazol-5-yl)methyl)-1-oxoisoindolin-2-yl)methyl)-5-oxa-7-azaspiro[3.4]octan-6-one]	5.30 to 6.30	B (3≥B>2)	> 6.30	> 1.5
O=C1c2ccccc2C(Cc2ncccc2Br)N1CCc1cn[nH]c1 (centres unmarked) [Compound 475, 2-(2-(1H-pyrazol-4-yl)ethyl)-3-((3-bromopyridin-2-yl)methyl)isoindolin-1-one]	5.30 to 6.30	C (2≥C)	5.30 to 6.30	1.2 to 1.5
O=C1NC(=O)C2(CC(CN3C(=O)c4ccccc4C3Cc3ncccc3Br)C2)O1 (centres unmarked) [Compound 476, 2-((1-((3-bromopyridin-2-yl)methyl)-3-oxoisoindolin-2-yl)methyl)-5-oxa-7-azaspiro[3.4]octane-6,8-dione]	≤ 5.30	B (3≥B>2)	4.30 to 5.30	> 1.5
Cc1n[nH]cc1C#CCN1C(=O)c2ccccc2C1Cc1c(Cl)cnn1C (centres unmarked) [Compound 478, 3-((4-chloro-1-methyl-1H-pyrazol-5-yl)methyl)-2-(3-(3-methyl-1H-pyrazol-4-yl)prop-2-yn-1-yl)isoindolin-1-one]	5.30 to 6.30	B (3≥B>2)	5.30 to 6.30	> 1.5
Cc1nn(C)c(C#N)c1CC1c2ccccc2C(=O)N1CC1CC2(CNC(=O)O2)C1 (centres unmarked) [Compound 479, 1,3-dimethyl-4-((3-oxo-2-((6-oxo-5-oxa-7-azaspiro[3.4]octan-2-yl)methyl)isoindolin-1-yl)methyl)-1H-pyrazole-5-carbonitrile]	5.30 to 6.30	B (3≥B>2)	> 6.30	> 1.5

Further lines, with some results ahead:

pEC50 [1]	Enzymatic Emax [1]	pEC50 [2]	SMILES	maximal fold induction [2]
5.30 to 6.30	A (A>3)	> 6.30	Cn1ncc(Cl)c1CC1c2cc(Br)ccc2C(=O)N1CC1CC2(CNC(=O)O2)C1 (centres unmarked) [Compound 450, 2-((5-bromo-3-((4-chloro-1-methyl-1H-pyrazol-5-yl)methyl)-1-oxoisoindolin-2-yl)methyl)-5-oxa-7-azaspiro[3.4]octan-6-one]	> 1.5
> 6.30	B (3≥B>2)	> 6.30	COc1nn(C)c(CC2c3ccccc3C(=O)N2CC2CC3(CNC(=O)O3)C2)c1Cl (centres unmarked) [Compound 451, 2-((1-((4-chloro-3-methoxy-1-methyl-1H-pyrazol-5-yl)methyl)-3-oxoisoindolin-2-yl)methyl)-5-oxa-7-azaspiro[3.4]octan-6-one]	> 1.5
> 6.30	B (3≥B>2)	> 6.30	Cn1ncc(Cl)c1CC1c2ccccc2C(=O)N1CC#Cc1cn[nH]c1 (centres unmarked) [Compound 453, 2-(3-(1H-pyrazol-4-yl)prop-2-yn-1-yl)-3-((4-chloro-1-methyl-1H-pyrazol-5-yl)methyl)isoindolin-1-one]	> 1.5
5.30 to 6.30	A (A>3)	> 6.30	N#Cc1cncc(C#N)c1CC1c2ccccc2C(=O)N1CC1CC2(CNC(=O)O2)C1 (centres unmarked) [Compound 459, 4-((3-oxo-2-((6-oxo-5-oxa-7-azaspiro[3.4]octan-2-yl)methyl)isoindolin-1-yl)methyl)pyridine-3,5-dicarbonitrile]	> 1.5
> 6.30	B (3≥B>2)	> 6.30	Cc1cccc2c1C(=O)N(CC1CC3(CNC(=O)O3)C1)C2Cc1c(Cl)cnn1C (centres unmarked) [Compound 460, 2-((1-((4-chloro-1-methyl-1H-pyrazol-5-yl)methyl)-4-methyl-3-oxoisoindolin-2-yl)methyl)-5-oxa-7-azaspiro[3.4]octan-6-one]	> 1.5
5.30 to 6.30	B (3≥B>2)	5.30 to 6.30	Cn1ncc(Cl)c1CC1c2cc(CN3CCOCC3)ccc2C(=O)N1CC1CC2(CNC(=O)O2)C1 (centres unmarked) [Compound 461, 2-((3-((4-chloro-1-methyl-1H-pyrazol-5-yl)methyl)-5-(morpholinomethyl)-1-oxoisoindolin-2-yl)methyl)-5-oxa-7-azaspiro[3.4]octan-6-one]	> 1.5
5.30 to 6.30	C (2≥C)	4.30 to 5.30	Cn1ncc(Cl)c1CC1c2cc(CN3CCCC3)ccc2C(=O)N1CC1CC2(CNC(=O)O2)C1 (centres unmarked) [Compound 462, 2-((3-((4-chloro-1-methyl-1H-pyrazol-5-yl)methyl)-1-oxo-5-(pyrrolidin-1-ylmethyl)isoindolin-2-yl)methyl)-5-oxa-7-azaspiro[3.4]octan-6-one]	> 1.5
5.30 to 6.30	B (3≥B>2)	> 6.30	Cn1ncc(Cl)c1CC1c2cc(N3CCOCC3)ccc2C(=O)N1CC1CC2(CNC(=O)O2)C1 (centres unmarked) [Compound 463, 2-((3-((4-chloro-1-methyl-1H-pyrazol-5-yl)methyl)-5-morpholino-1-oxoisoindolin-2-yl)methyl)-5-oxa-7-azaspiro[3.4]octan-6-one]	> 1.5
5.30 to 6.30	B (3≥B>2)	5.30 to 6.30	Cn1ncc(Cl)c1CC1c2cc(C#N)ccc2C(=O)N1CC1CC2(CNC(=O)O2)C1 (centres unmarked) [Compound 464, 3-((4-chloro-1-methyl-1H-pyrazol-5-yl)methyl)-1-oxo-2-((6-oxo-5-oxa-7-azaspiro[3.4]octan-2-yl)methyl)isoindoline-5-carbonitrile]	> 1.5
5.30 to 6.30	B (3≥B>2)	> 6.30	CCn1ncc(Cl)c1CC1c2ccccc2C(=O)N1CC1CC2(CNC(=O)O2)C1 (centres unmarked) [Compound 465, 2-((1-((4-chloro-1-ethyl-1H-pyrazol-5-yl)methyl)-3-oxoisoindolin-2-yl)methyl)-5-oxa-7-azaspiro[3.4]octan-6-one]	> 1.5
> 6.30	B (3≥B>2)	> 6.30	Cn1c(CC2c3ccccc3C(=O)N2CC2CC3(CNC(=O)O3)C2)c(Cl)ccc1=O (centres unmarked) [Compound 467, 2-((1-((3-chloro-1-methyl-6-oxo-1,6-dihydropyridin-2-yl)methyl)-3-oxoisoindolin-2-yl)methyl)-5-oxa-7-azaspiro[3.4]octan-6-one]	> 1.5
5.30 to 6.30	B (3≥B>2)	5.30 to 6.30	Cn1cnc(Cl)c1CC1c2ccccc2C(=O)N1CC1CC2(CNC(=O)O2)C1 (centres unmarked) [Compound 468, 2-((1-((4-chloro-1-methyl-1H-imidazol-5-yl)methyl)-3-oxoisoindolin-2-yl)methyl)-5-oxa-7-azaspiro[3.4]octan-6-one]	> 1.5
> 6.30	B (3≥B>2)	> 6.30	Cn1ncc(Cl)c1CC1c2ccccc2C(=O)N1CC#Cc1c[nH]nc1Cl (centres unmarked) [Compound 477, 3-((4-chloro-1-methyl-1H-pyrazol-5-yl)methyl)-2-(3-(3-chloro-1H-pyrazol-4-yl)prop-2-yn-1-yl)isoindolin-1-one]	> 1.5
> 6.30	B (3≥B>2)	> 6.30	Cn1ccc(Cl)c(CC2c3ccccc3C(=O)N2CC2CC3(CNC(=O)O3)C2)c1=O (centres unmarked) [Compound 480, 2-((1-((4-chloro-1-methyl-2-oxo-1,2-dihydropyridin-3-yl)methyl)-3-oxoisoindolin-2-yl)methyl)-5-oxa-7-azaspiro[3.4]octan-6-one]	> 1.5
